Experimental data published in PubChem BioAssay (NCI).
Several values for one entry are separate records, joined by “and”; a condition that tells them apart may be missing. Equal entries are not always repeated.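 Grown in 96-well plates, cells were treated for 48 hours with each compound at five concentrations. Insufficient inhibition: endpoint recorded as highest concentration tested. GI50: concentration for 50% inhibition of growth. The concentration for full growth arrest is given as TGI.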

Columns and labels:
Assay in all cases: growth of human tumour cells (NCI), 48 h
A549 NSCLC = system: A549 NSCLC
NCI-H226 lung = system: NCI-H226 lung
NCI-H23 lung = system: NCI-H23 lung
NCI/ADR-RES ovarian = system: NCI/ADR-RES ovarian
OVCAR-4 ovarian = system: OVCAR-4 ovarian
PC-3 prostate = system: PC-3 prostate
SK-MEL-5 melanoma = system: SK-MEL-5 melanoma
SNB-19 CNS = system: SNB-19 CNS
SR leukemia = system: SR leukemia
TK-10 renal = system: TK-10 renal

SMILES | GI50 (A549 NSCLC) | TGI (A549 NSCLC) | GI50 (NCI-H226 lung) | TGI (NCI-H226 lung) | GI50 (NCI-H23 lung) | TGI (NCI-H23 lung) | GI50 (NCI/ADR-RES ovarian) | TGI (NCI/ADR-RES ovarian) | GI50 (OVCAR-4 ovarian) | TGI (OVCAR-4 ovarian) | GI50 (PC-3 prostate) | TGI (PC-3 prostate) | GI50 (SK-MEL-5 melanoma) | TGI (SK-MEL-5 melanoma) | GI50 (SNB-19 CNS) | TGI (SNB-19 CNS) | GI50 (SR leukemia) | TGI (SR leukemia) | GI50 (TK-10 renal) | TGI (TK-10 renal)
COc1ccc(Cn2c(Br)c3c(c2-c2cc(OC)c(OC)c(OC)c2)CCc2sc(N)nc2-3)cc1 | 2.23 µM | > 100 µM | 6.93 µM | > 50.6 µM | 2.69 µM | > 58.3 µM | 0.866 µM | 36.3 µM | 2.5 µM | > 57.3 µM | 1.57 µM | > 100 µM | 1.6 µM | 13.5 µM | 3.97 µM | > 100 µM | 0.41 µM | 5.67 µM | 1.1 µM | 6.96 µM
CC[C@]12C=CCN3CC[C@@]4(c5ccc(OC)cc5N(C)[C@H]4[C@@](O)(C(=O)OC)[C@@H]1OC(=O)CCCN1CCN(CCCC(=O)O[C@@H]4[C@]5(CC)C=CCN6CC[C@@]7(c8ccc(OC)cc8N(C)[C@H]7[C@@]4(O)C(=O)OC)[C@@H]65)CC1)[C@@H]32 | 1.31 µM | 2.95 µM | 1.73 µM | 3.47 µM | 1.59 µM | 3.13 µM | 1.45 µM | 3.17 µM | 1.11 µM | 2.44 µM | 0.35 µM | 1.57 µM | 1.48 µM | 2.83 µM | 1.23 µM | 2.59 µM | 0.252 µM | 0.738 µM | 1.3 µM | 2.78 µM
CNS(=O)(=O)Nc1nccc(Cc2c(C)c3ccc(Oc4ncccn4)cc3oc2=O)c1F | 0.674 µM and 1.08 µM | > 100 µM | 6.82 µM and > 10 µM | > 100 µM | 0.061 µM and 0.148 µM | > 100 µM | 20.2 µM and > 10 µM | > 100 µM | 4.33 µM and > 5.62 µM | > 100 µM | > 100 µM | > 100 µM | 0.153 µM and 0.926 µM | 17.4 µM and > 10 µM | > 48.4 µM | > 100 µM | > 100 µM | > 100 µM | 0.184 µM and 0.0841 µM | > 100 µM
C/C(=C\c1csc(C)n1)[C@@H]1C[C@@H]2O[C@]2(C)CCC[C@H](C)[C@H](O)[C@@H](C)C(=O)C(C)(C)[C@@H](O)CC(=O)N1 | 9.28e-05 µM | 0.000294 µM | 0.000388 µM | 0.000652 µM | 0.00019 µM | 0.000412 µM | 0.000206 µM | 0.000412 µM | 0.000318 µM | 0.000821 µM | < 1e-05 µM | < 1e-05 µM | 0.000137 µM | 0.000337 µM | 0.000347 µM | 0.000508 µM | 0.00102 µM | 0.00332 µM | 0.00534 µM | 0.0411 µM
CN(C)c1ccc(/C=N/N=C(\C#N)[S][Sn]([Cl])([c]2ccccc2)[c]2ccccc2)cc1 | 2.84 µM | 9.05 µM | 1.82 µM | 3.46 µM | 1.44 µM | 3.21 µM | 2.01 µM | 4.76 µM | 1.32 µM | 2.63 µM | 2.94 µM | 8.38 µM | 1.66 µM | 3.37 µM | 1.99 µM | 3.65 µM | 1.57 µM | 8.57 µM | 1.46 µM | 2.8 µM
N#CC1=C(N)Oc2c(ccc3ccccc23)C1c1cc2ccccc2n2nnnc12 (stereo not drawn) | 3.02 µM | > 100 µM | 3.08 µM | > 100 µM | 3.45 µM | > 100 µM | 0.534 µM | 46.6 µM | 18.7 µM | > 100 µM | 0.546 µM | > 100 µM | 0.611 µM | > 100 µM | 0.702 µM | > 100 µM | 0.232 µM | > 100 µM | 4.8 µM | > 100 µM
C=C(C)c1nc(Oc2ccccc2)nc(Oc2ccccc2)n1 | – | 38.8 µM | – | 36.7 µM | – | 21.5 µM | – | 29.7 µM | – | 31.7 µM | – | 27.8 µM | – | 27.4 µM | – | 18.5 µM | – | > 25.1 µM | – | 14 µM
Cn1cc(-c2ccc3c(c2)ncn3-c2cc(NS(=O)(=O)C3CC3)cc(-c3ccc(F)cc3F)c2)cn1 | 9.01 µM | > 100 µM | 27 µM | 94.4 µM | 20.6 µM | > 100 µM | 13.6 µM | > 100 µM | 3.45 µM | > 100 µM | 5.97 µM | > 100 µM | 13.1 µM | 32 µM | 9.46 µM | > 100 µM | 6 µM | > 100 µM | 2.73 µM | 72.7 µM
Nc1cc(C(F)(F)F)c(-c2nc(N3CCOCC3)nc(N3CCOCC3)n2)cn1 | 0.416 µM | 8.62 µM | 0.384 µM | 12.2 µM | 0.446 µM | > 100 µM | – | > 23.2 µM | 0.667 µM | > 31.1 µM | 0.258 µM | > 100 µM | 0.384 µM | 2.54 µM | 2.11 µM | 44.5 µM | 1.04 µM | 28.4 µM | 0.11 µM | 1.17 µM
COc1ccc(-n2c(=O)c3ccccc3n(Cc3ccc(C(=O)NO)cc3)c2=O)cc1 | 4.1 µM | 16.3 µM | 1.56 µM | 3.75 µM | 1.78 µM | 4.29 µM | 18.2 µM | > 100 µM | 2.86 µM | 20 µM | 2.08 µM | 5.06 µM | 1.73 µM | 3.45 µM | 2.96 µM | 18.5 µM | 2.86 µM | > 100 µM | 2.33 µM | 12.9 µM
CC1=C(C(=O)Nc2ccc3[nH]ncc3c2)C(c2ccc(F)cc2)N=C(c2ccc(C(F)(F)F)nc2)N1 (stereo not drawn) | 13.4 µM | > 25 µM | 3.99 µM | > 25 µM | 12.8 µM | > 25 µM | 18.5 µM | > 25 µM | 12.4 µM | > 25 µM | 13.1 µM | > 25 µM | 7.45 µM | > 25 µM | > 23.6 µM | > 25 µM | 6.43 µM | > 25 µM | > 24.1 µM | > 25 µM
CCCCCCCCCCN=C(N)c1ccc(N2CCN(c3ccc(C(N)=NCCCCCCCCCC)cc3)CC2)cc1 | 3.32 µM | > 50 µM | 7.72 µM | > 50 µM | 3.23 µM | > 50 µM | > 50 µM | > 50 µM | 6.5 µM | > 50 µM | 2.94 µM | 12.1 µM | 2.19 µM | > 50 µM | 3.02 µM | 19.1 µM | > 50 µM | > 50 µM | 8.29 µM | > 50 µM
O=S(=O)(Nc1ccccc1)c1ccc(C2CC3(Cl)C(Cl)=C(Cl)C2(Cl)C3(Cl)Cl)cc1 (stereo not drawn) | 3.11 µM | 11 µM | 1.87 µM | 4.47 µM | 2.8 µM | 7.35 µM | 2.95 µM | 7.98 µM | 3.37 µM | 11.1 µM | 2.74 µM | 10.2 µM | 1.93 µM | 3.74 µM | 3.74 µM | 13.6 µM | 2.08 µM | 5.2 µM | 4.4 µM | 14.6 µM
O=S(=O)(O)C(c1ccccc1)C(O)c1ccccc1 (stereo not drawn) | – | > 100 µM | – | > 100 µM | – | > 100 µM | – | > 100 µM | – | > 100 µM | – | > 100 µM | – | > 100 µM | – | > 100 µM | – | > 100 µM | – | > 100 µM
C#CCCCCCC(=O)N[C@H]1C=C[C@@H]2/C=C(C)/C=C/[C@@H](C)[C@H]([C@H](C)[C@H](O)[C@@H](C)NC(C)=O)OC(=O)/C=C/C=C(C)\C=C\[C@]2(C)C1 | < 0.004 µM | > 40 µM | 0.00478 µM | 6.05 µM | 0.0942 µM | > 40 µM | 0.0258 µM | > 40 µM | 3.06 µM | > 40 µM | < 0.004 µM | > 40 µM | < 0.004 µM | 0.00803 µM | 0.0247 µM | > 40 µM | < 0.004 µM | 9.53 µM | 0.0158 µM | > 40 µM
COc1nc(N)nc2nc[nH]c12 | > 800 µM and 713 µM | > 1000 µM | 400 µM and 380 µM | 458 µM and 800 µM and > 1000 µM | > 800 µM and 888 µM | > 1000 µM | 580 µM | > 739 µM | > 800 µM and 982 µM | 500 µM and > 800 µM and > 1000 µM | – | 500 µM and > 1000 µM | > 800 µM and 782 µM | > 1000 µM | > 1000 µM | > 1000 µM | > 800 µM and 249 µM | 500 µM and > 800 µM and > 849 µM | 431 µM and 442 µM | 500 µM and 800 µM and > 1000 µM
